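Following 48 hours of exposure in 96-well plates, responses at five concentrations were used to interpolate endpoints linearly. At the GI50, growth is halved. The concentration for full growth arrest is given as TGI.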
Assays:
Assay in all cases: NCI anticancer screen, dose series, 48 h
[1] = test system: A498 renal
[2] = test system: CAKI-1 renal
[3] = test system: HL-60(TB) leukemia
[4] = test system: HS 578T breast
[5] = test system: MOLT-4 leukemia
[6] = test system: RXF 393 renal
[7] = test system: SF-268 CNS
[8] = test system: SK-MEL-28 melanoma
[9] = test system: SK-OV-3 ovarian
[10] = test system: U251 CNS

## CC1(C)CCC[C@]2(C)[C@@H](C=O)C(C=O)=CC[C@@H]12
[1]
  TGI: > 100 µM
[2]
  TGI: 23.1 µM
[3]
  TGI: 36.5 µM
[4]
  TGI: > 100 µM
[5]
  TGI: 30.5 µM
[6]
  TGI: 34.6 µM
[7]
  TGI: 55.8 µM
[8]
  TGI: > 100 µM
[9]
  TGI: > 100 µM
[10]
  TGI: 46.9 µM

## CC1(C)N=C(N)N=C(N)N1c1ccc(CCCCc2ccc(S(=O)(=O)F)cc2)c(Cl)c1
[1]
  GI50: 0.981 µM
  TGI: 18 µM
[2]
  GI50: 0.79 µM
  TGI: > 100 µM
[3]
  GI50: 0.181 µM
  TGI: 23.6 µM
[4]
  GI50: 9.27 µM
  TGI: 32.1 µM
[5]
  GI50: 0.518 µM
  TGI: 21.4 µM
[6]
  GI50: 0.0862 µM
  TGI: > 61.2 µM
[7]
  GI50: 0.225 µM
  TGI: 19.5 µM
[8]
  GI50: 0.85 µM
  TGI: 20.8 µM
[9]
  GI50: 7.97 µM
  TGI: 25.5 µM
[10]
  GI50: 0.0936 µM
  TGI: 16.4 µM

## CN1CCC(n2cnc(-c3ccc(F)cc3)c2-c2ccnc(N)n2)CC1
[1]
  GI50: 5.85 µM
  TGI: > 23.5 µM
[2]
  GI50: 7.63 µM
  TGI: > 24.1 µM
[3]
  GI50: > 25 µM
  TGI: > 25 µM
[4]
  GI50: 15.3 µM
  TGI: > 25 µM
[5]
  GI50: 12.6 µM
  TGI: > 25 µM
[6]
  GI50: 9.74 µM
  TGI: > 25 µM
[7]
  GI50: 10.4 µM
  TGI: > 25 µM
[8]
  GI50: > 23.8 µM
  TGI: > 25 µM
[9]
  GI50: 10.8 µM
  TGI: > 25 µM
[10]
  GI50: 8.53 µM
  TGI: > 25 µM

## CC(=O)Oc1ccccc1C(=O)/C=C/c1cccc([N+](=O)[O-])c1
[1]
  GI50: 2.54 µM
  TGI: 17.6 µM
[2]
  GI50: 2.95 µM
  TGI: 14.9 µM
[3]
  GI50: 3.26 µM
  TGI: 9.51 µM
[4]
  GI50: 1.78 µM
  TGI: 8.16 µM
[5]
  GI50: 3.15 µM
  TGI: > 100 µM
[6]
  GI50: 1.88 µM
  TGI: 3.48 µM
[7]
  GI50: 3.58 µM
  TGI: 12.4 µM
[8]
  GI50: 5.56 µM
  TGI: 21.2 µM
[9]
  GI50: 12.9 µM
  TGI: 29.2 µM
[10]
  GI50: 2.02 µM
  TGI: 4.78 µM

## CCN1C(=O)N(CC)C2C1NN=c1s/c(=C\c3ccccc3Br)c(=O)n12 (configuration not stated)
[1]
  GI50: < 0.0156 µM
  TGI: 0.0598 µM
[2]
  GI50: 0.0242 µM
  TGI: 26.3 µM
[3]
  GI50: 0.0241 µM
  TGI: 0.0639 µM
[4]
  GI50: 0.0355 µM
  TGI: 20.5 µM
[5]
  GI50: 0.0399 µM
  TGI: 29.5 µM
[6]
  GI50: 0.0389 µM
  TGI: 17.4 µM
[7]
  GI50: 0.0612 µM
  TGI: > 59.5 µM
[8]
  GI50: 7.19 µM
  TGI: 25 µM
[9]
  GI50: 0.0667 µM
  TGI: > 100 µM
[10]
  GI50: 0.0418 µM
  TGI: 22.3 µM

## CN(C)CC1CCCC1=O (configuration not stated)
[1]
  TGI: 27.3 µM
[2]
  TGI: 0.373 µM
[3]
  TGI: 0.374 µM
[4]
  TGI: 56.2 µM
[5]
  TGI: 0.875 µM
[6]
  TGI: 6.63 µM
[7]
  TGI: 13.6 µM
[8]
  TGI: 6.48 µM
[9]
  TGI: 28.6 µM
[10]
  TGI: 14.9 µM

## CCCCCn1sc(=O)n(Cc2ccc(CNC(=O)OCc3ccc4cccc(O)c4n3)cc2)c1=O
[1]
  GI50: 1.73 µM
  TGI: 4.58 µM
[2]
  GI50: 0.935 µM
  TGI: 2.17 µM
[3]
  GI50: 2.88 µM
  TGI: > 100 µM
[4]
  GI50: 2.17 µM
  TGI: 6.73 µM
[5]
  GI50: 3.02 µM
  TGI: 45.2 µM
[6]
  GI50: 1.37 µM
  TGI: 2.67 µM
[7]
  GI50: 1.82 µM
  TGI: 4.14 µM
[8]
  GI50: 1.6 µM
  TGI: 2.94 µM
[9]
  GI50: 4.58 µM
  TGI: 18.4 µM
[10]
  GI50: 1.77 µM
  TGI: 3.45 µM

## CCN1C(=O)N(CC)C2C1NN=c1s/c(=C3\C(=O)N(CCc4ccccc4)c4ccccc43)c(=O)n12 (configuration not stated)
[1]
  GI50: 0.115 µM
  TGI: 0.603 µM
[2]
  GI50: 0.65 µM
  TGI: 3.11 µM
[3]
  GI50: 0.538 µM
  TGI: 1.56 µM
[4]
  GI50: 0.449 µM
  TGI: 6.37 µM
[5]
  GI50: 1.49 µM
  TGI: > 100 µM
[6]
  GI50: 0.262 µM
  TGI: 1.01 µM
[7]
  GI50: 1.95 µM
  TGI: 27.4 µM
[8]
  GI50: 1.2 µM
  TGI: > 28.4 µM
[9]
  GI50: 0.542 µM
  TGI: 5.77 µM
[10]
  GI50: 0.413 µM
  TGI: 15.6 µM

## Cn1cc(-c2nonc2-c2cn(C)c3ccccc23)c2ccccc21
[1]
  GI50: 0.337 µM
[2]
  GI50: 0.653 µM
  TGI: > 100 µM
[3]
  GI50: 0.483 µM
  TGI: 1.72 µM
[4]
  GI50: 0.508 µM
  TGI: 24.6 µM
[5]
  GI50: 1.72 µM
  TGI: > 100 µM
[6]
  GI50: 0.827 µM
  TGI: 21.9 µM
[7]
  GI50: 1.6 µM
  TGI: > 100 µM
[8]
  GI50: 4.68 µM
  TGI: > 100 µM
[9]
  GI50: 1.28 µM
  TGI: > 100 µM
[10]
  GI50: 0.689 µM
  TGI: > 100 µM

## CN1CCN(CC(O)COc2c(Br)c(Br)c(Br)c3c2OC(C)(C)C3)CC1 (configuration not stated)
[1]
  GI50: 10.1 µM
  TGI: 28.7 µM
[2]
  GI50: 14.5 µM
  TGI: 38.1 µM
[3]
  GI50: 4.57 µM
  TGI: 18 µM
[4]
  GI50: 10.4 µM
  TGI: 42.7 µM
[6]
  GI50: 3.3 µM
  TGI: 6.53 µM
[7]
  GI50: 5.79 µM
  TGI: 24.1 µM
[8]
  GI50: 1.85 µM
  TGI: 3.48 µM
[9]
  GI50: 18.4 µM
  TGI: 38.4 µM
[10]
  GI50: 3.56 µM
  TGI: 12.9 µM

## CN(C)c1ccc(N=Nc2ccncc2)cc1
[1]
  TGI: > 100 µM
[2]
  TGI: > 100 µM
[3]
  TGI: > 100 µM
[4]
  TGI: > 100 µM
[5]
  TGI: > 100 µM
[6]
  TGI: > 100 µM
[7]
  TGI: > 100 µM
[8]
  TGI: > 100 µM
[9]
  TGI: > 100 µM
[10]
  TGI: > 100 µM

## COc1cc(/C=C/[N+](=O)[O-])cc(Br)c1OC
[1]
  GI50: 2.03 µM
  TGI: 8.53 µM
[2]
  GI50: 1.89 µM
  TGI: 5.23 µM
[3]
  GI50: 1.62 µM
  TGI: > 100 µM
[4]
  GI50: 2.9 µM
  TGI: 15.9 µM
[5]
  GI50: 3.52 µM
  TGI: 53.6 µM
[6]
  GI50: 1.61 µM
  TGI: 3.01 µM
[7]
  GI50: 3.64 µM
  TGI: 13.2 µM
[8]
  GI50: 2.39 µM
  TGI: 6.14 µM
[9]
  GI50: 13.4 µM
  TGI: 26.5 µM
[10]
  GI50: 1.77 µM
  TGI: 3.75 µM

## CC(C)(C)c1ccc(C(=O)Nc2sc3c(c2C(N)=O)CCC(=O)C3)cc1
[1]
  GI50: 2.83 µM
  TGI: 9.04 µM
[2]
  GI50: 0.348 µM
  TGI: 1.38 µM
[3]
  GI50: 0.481 µM
  TGI: 4.82 µM
[4]
  GI50: 1.11 µM
  TGI: 5.33 µM
[5]
  GI50: 0.705 µM
  TGI: 3.45 µM
[6]
  GI50: 0.426 µM
  TGI: 1.94 µM
[7]
  GI50: 1.11 µM
  TGI: 3.61 µM
[8]
  GI50: 1.13 µM
  TGI: 2.77 µM
[9]
  GI50: 2.81 µM
  TGI: 8.75 µM
[10]
  GI50: 0.345 µM
  TGI: 1.43 µM

Source: PubChem BioAssay (NCI)
